Test [1] concerns C. albicans CAF2-1 strain. As to the kind of experiment: Anti-Candida activity, MIC measurement. In kind it is cell-based. To be noted: CAF21STRAIN, C. albicans CAF2-1, RPMI1640, 42-48 hours at 35° C., visual inspection, read-out: Anti-Candida Activity (minimum inhibitory concentration, MIC). The method in brief: (§1)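 C. albicans CAF2-1 was grown 48 h at 30° C. in SDB and diluted in RPMI1640 to 1.2×10^3 cells/mL. Frozen A. fumigatus Tsukuba was diluted to 4.5×10^3 cells/mL. Compounds, two-fold serially diluted in DMSO from 2.5 mg/mL, were cultured aerobically with fungi for 42-48 h at 35° C.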

The subject of test [2] is A. fumigatus Tsukuba strain. The test is described as follows: Anti-Aspergillus activity, MIC measurement. In kind it is cell-based. The following applies: RPMI1640, 42-48 hours at 35° C., visual inspection, read-out: Anti-Aspergillus Activity (minimum inhibitory concentration, MIC). The method in brief:
as §1

Data on 36 molecules can be found in patent US8158657B2, “Heterocycles substituted pyridine derivatives and antifungal agent containing thereof” (Eisai R&D Management Co., Ltd., priority 2005, dated 2012).

≈ marks a conversion by molar mass, not a printed value.

Turning to `Nc1ncc(F)cc1-c1cc(Cc2ccc(OCc3ccc(F)cn3)cc2)no1` [Example 174, 5-Fluoro-3-(3-(4-(5-fluoro-pyridin-2-ylmethoxy)-benzyl)-isoxazol-5-yl)pyridin-2-ylamine], the results for the MIC in test [1] and in test [2] were 6.25 µg/mL (≈ 15.8 µM) and 1.56 µg/mL (≈ 3.96 µM), respectively.
The like results for `Cc1ccc(Oc2ccc(Cc3cc(-c4cccnc4N)on3)s2)cc1` [Example 48, 3-(3-(5-p-Tolyloxy-thiophen-2-ylmethyl)-isoxazol-5-yl)-pyridin-2-ylamine] were, in that order, 0.39 µg/mL (≈ 1.07 µM) and 0.2 µg/mL (≈ 0.55 µM).
As for `Cc1cccc(COc2ccc(Cc3cc(-c4cccnc4N)on3)cc2)n1` [Example 10, 3-(3-(4-(6-Methyl-pyridin-2-ylmethoxy)-benzyl)-isoxazol-5-yl)-pyridin-2-ylamine], the MIC in test [1] stood at 0.39 µg/mL (≈ 1.05 µM); in test [2] it was 0.78 µg/mL (≈ 2.09 µM).
`Nc1ncccc1-c1cc(Cc2ccc(OCc3nccs3)cc2)no1` [Example 88, 3-(3-(4-(Thiazol-2-ylmethoxy)-benzyl)-isoxazol-5-yl)-pyridin-2-ylamine]: the MIC in test [1] and in test [2] was 0.2 µg/mL (≈ 0.549 µM) each time.
Turning to `Nc1ncccc1-c1cc(Cc2ccc(NCc3ccccc3)cc2)no1` [Example 68, 3-(3-(4-Benzylamino-benzyl)-isoxazol-5-yl)-pyridin-2-ylamine], the figures for the MIC in test [1] and in test [2] were 0.1 µg/mL (≈ 0.281 µM) and 0.39 µg/mL (≈ 1.09 µM), respectively.
The like results for `Nc1ccc(-c2cc(Cc3ccc(COc4cc(F)ccn4)cc3)no2)c(N)n1` [Example 117, 3-(3-(4-(4-Fluoro-pyridin-2-yloxymethyl)-benzyl)-isoxazol-5-yl)-pyridin-2,6-diamine] were, in that order, 1.56 µg/mL (≈ 3.99 µM) and 0.78 µg/mL (≈ 1.99 µM).
With `Nc1ncccc1-c1cc(Cc2ccc(COc3ccc(F)cc3)nc2)no1` [Example 72, 3-(3-(6-(4-Fluoro-phenoxymethyl)-pyridin-3-ylmethyl)-isoxazol-5-yl)pyridin-2-ylamine], the values for the MIC in test [1] and in test [2] were 6.25 µg/mL (≈ 16.6 µM) and 12.5 µg/mL (≈ 33.2 µM), respectively.
With `CCCCOc1cccc(Cc2cc(-c3cccnc3N)on2)c1` [Example 65, 3-(3-(3-Butoxy-benzyl)-isoxazol-5-yl)-pyridin-2-ylamine], the figures for the MIC in test [1] and in test [2] were 0.39 µg/mL (≈ 1.21 µM) and 0.78 µg/mL (≈ 2.41 µM), respectively.
On the same counts, the results for `Cc1nc(N)ccc1-c1cc(Cc2ccc(COc3ccccn3)cc2)no1` [Example 187] are 1.56 µg/mL (≈ 4.19 µM) and 0.78 µg/mL (≈ 2.09 µM).
The like results for `Nc1ccc(-c2cc(Cc3ccc(OCc4ccccc4)cc3)no2)cn1` [Example 28, 5-(3-(4-Benzyloxy-benzyl)-isoxazol-5-yl)-pyridin-2-ylamine] were, in that order, more than 25 µg/mL and 0.39 µg/mL (≈ 1.09 µM).
Consider `Nc1ccc(-c2cc(Cc3ccc(OCc4ccc(F)cn4)c(F)c3)no2)c(N)n1` [Example 157, 3-(3-(3-Fluoro-4-(5-fluoro-pyridin-2-ylmethoxy)-benzyl)-isoxazol-5-yl)pyridin-2,6-diamine], for which the values for the MIC in test [1] and in test [2] were 3.13 µg/mL (≈ 7.65 µM) and 0.78 µg/mL (≈ 1.91 µM), respectively.
With `Nc1ccc(-c2cc(Cc3ccc(Nc4ccccc4)cc3)no2)c(N)n1` [Example 129, 3-(3-(4-Phenylamino-benzyl)-isoxazol-5-yl)-pyridin-2,6-diamine], the MIC in test [1] and in test [2] was 0.2 µg/mL (≈ 0.56 µM) in each case.
As for `Nc1ccc(-c2cc(Cc3ccn(Cc4cccc(F)c4)c3)no2)c(N)n1` [Example 160, 3-(3-(1-(3-Fluoro-benzyl)-1H-pyrrol-3-ylmethyl)-isoxazol-5-yl)-pyridin-2,6-diamine], the results for the MIC in test [1] and in test [2] were 0.39 µg/mL (≈ 1.07 µM) and 0.78 µg/mL (≈ 2.15 µM), respectively.
The like results for `CCOC(=O)CNc1ccc(-c2cc(Cc3ccc(OCc4ccccc4)nc3)no2)c(N)n1` [Example 227, (6-Amino-5-(3-(6-benzyloxy-pyridin-3-ylmethyl)-isoxazol-5-yl)-pyridin-2-ylamino)-acetic acid ethyl ester] were, in that order, 1.56 µg/mL (≈ 3.39 µM) and 1.56 µg/mL (≈ 3.39 µM).
The like results for `Nc1ncccc1-c1cc(Cc2ccc(Cc3ccccc3)nc2)no1` [Example 210, 3-(3-(6-Benzyl-pyridin-3-ylmethyl)-isoxazol-5-yl)-pyridin-2-ylamine] were, in that order, 0.1 µg/mL (≈ 0.292 µM) and 0.2 µg/mL (≈ 0.584 µM).
Take `Nc1ncccc1-c1cnn(Cc2cccc(Oc3ccccc3)c2)c1` [Example 35, 3-(1-(3-Phenoxy-benzyl)-1H-pyrazol-4-yl)-pyridin-2-ylamine]: the MIC in test [1] came to 0.2 µg/mL (≈ 0.584 µM); in test [2], 1.56 µg/mL (≈ 4.56 µM).
The like results for `COCC(=O)Nc1ccc(-c2cc(Cc3ccc(OCc4ccccc4)nc3)no2)c(N)n1` [Example 226, N-(6-Amino-5-(3-(6-benzyloxy-pyridin-3-ylmethyl)-isoxazol-5-yl)-pyridin-2-yl)-2-methoxy-acetamide] were, in that order, 0.39 µg/mL (≈ 0.875 µM) and 0.39 µg/mL (≈ 0.875 µM).
The like results for `COCc1ccc(-c2cc(Cc3ccc(Cc4ccc(Cl)o4)cc3)no2)c(N)n1` [Example 168, 3-(3-(4-(5-Chloro-furan-2-ylmethyl)-benzyl)-isoxazol-5-yl)-6-methoxymethyl-pyridin-2-ylamine] were, in that order, 0.78 µg/mL (≈ 1.9 µM) and 0.78 µg/mL (≈ 1.9 µM).
The like results for `Nc1ccc(-c2cc(Cc3ccc(OCc4ccncc4)cc3)no2)c(N)n1` [Example 107, 3-(3-(4-(Pyridin-4-ylmethoxy)-benzyl)-isoxazol-5-yl)-pyridin-2,6-diamine] were, in that order, 0.78 µg/mL (≈ 2.09 µM) and 0.78 µg/mL (≈ 2.09 µM).
On to `Nc1ccc(-c2cc(Cc3ccc(OCc4ccc(F)cc4)cc3)no2)c(N)n1` [Example 20, 3-(3-(4-(4-Fluoro-benzyloxy)-benzyl)-isoxazol-5-yl)-pyridin-2,6-diamine], for which the MIC in test [1] amounted to 0.78 µg/mL (≈ 2 µM); in test [2], 0.2 µg/mL (≈ 0.512 µM).
The like results for `Cc1cc(COc2ccc(Cc3cc(-c4cccnc4N)on3)cc2)ccn1` [Example 47, 3-(3-(4-(2-Methyl-pyridin-4-ylmethoxy)-benzyl)-isoxazol-5-yl)-pyridin-2-ylamine] were, in that order, 0.2 µg/mL (≈ 0.537 µM) and 0.39 µg/mL (≈ 1.05 µM).
With `Cc1ccc(-c2cc(Cc3ccc(COc4ccccn4)cc3)no2)cn1` [Example 190, 2-Methyl-5-(3-(4-(pyridin-2-yloxymethyl)-benzyl)-isoxazol-5-yl)-pyridine], the MIC in test [1] and in test [2] was 0.78 µg/mL (≈ 2.18 µM) throughout.
In the case of `Nc1ncccc1-c1cc(Cc2ccc(Nc3ccccc3)cc2)no1` [Example 69, 3-(3-(4-Phenylamino-benzyl)-isoxazol-5-yl)-pyridin-2-ylamine], the MIC in test [1] came to 0.1 µg/mL (≈ 0.292 µM); in test [2], 0.2 µg/mL (≈ 0.584 µM).
Turning to `Nc1ncccc1-c1cc(Cc2ccc(Oc3ccccn3)cc2)no1` [Example 209, 3-(3-(4-(Pyridin-2-yloxy)-benzyl)-isoxazol-5-yl)-pyridin-2-ylamine], the figures for the MIC in test [1] and in test [2] were 0.2 µg/mL (≈ 0.581 µM) and 0.39 µg/mL (≈ 1.13 µM), respectively.
On the same counts, the results for `Cc1cccc(OCc2ccc(Cc3cc(-c4cccnc4N)on3)cc2)n1` [Example 3, 3-(3-(4-(6-Methyl-pyridin-2-yloxymethyl)-benzyl)-isoxazol-5-yl)-pyridin-2-ylamine] are 0.1 µg/mL (≈ 0.269 µM) and 0.78 µg/mL (≈ 2.09 µM).
On the same counts, the results for `Nc1ccc(-c2cc(Cc3ccc(Oc4cncc(Cl)n4)cc3)no2)c(N)n1` [Example 215, 3-(3-(4-(6-Chloro-pyrazin-2-yloxy)-benzyl)-isoxazol-5-yl)-pyridin-2,6-diamine] are 0.39 µg/mL (≈ 0.988 µM) and 0.78 µg/mL (≈ 1.98 µM).
On the same counts, the results for `Nc1ccc(-c2cc(Cc3ccc(OCc4ccc(F)cc4F)nc3)no2)c(N)n1` [Example 153, 3-(3-(6-(2,4-Difluoro-benzyloxy)-pyridin-3-ylmethyl)-isoxazol-5-yl)-pyridin-2,6-diamine] are 1.56 µg/mL (≈ 3.81 µM) and 0.39 µg/mL (≈ 0.953 µM).
With `Nc1ccc(-c2cc(Cc3ccc(CCc4ccco4)cc3)no2)c(N)n1` [Example 140, 3-(3-(4-(2-Furan-2-yl-ethyl)-benzyl)-isoxazol-5-yl)-pyridin-2,6-diamine], the MIC in test [1] amounted to 0.2 µg/mL (≈ 0.555 µM); in test [2], 0.78 µg/mL (≈ 2.16 µM).
Consider `Nc1ncccc1-c1cc(Cc2cccc(OCc3ccccc3)c2)no1` [Example 61, 3-(3-(3-Benzyloxy-benzyl)-isoxazol-5-yl)-pyridin-2-ylamine], for which the MIC in test [1] was 0.2 µg/mL (≈ 0.56 µM); in test [2], 0.39 µg/mL (≈ 1.09 µM).
For `Nc1ccc(-c2cc(Cc3cncc(Oc4ccccc4)c3)no2)c(N)n1` [Example 145, 3-(3-(5-Phenoxy-pyridin-3-ylmethyl)-isoxazol-5-yl)-pyridin-2,6-diamine], the values for the MIC in test [1] and in test [2] were 6.25 µg/mL (≈ 17.4 µM) and 12.5 µg/mL (≈ 34.8 µM), respectively.
The like results for `Nc1ccc(-c2cc(Cc3ccc(OCc4ccccc4)nc3)no2)cn1` [Example 179, 5-(3-(6-Benzyloxy-pyridin-3-ylmethyl)-isoxazol-5-yl)-pyridin-2-ylamine] were, in that order, 0.78 µg/mL (≈ 2.18 µM) and 0.39 µg/mL (≈ 1.09 µM).
For the molecule `Nc1ncc(F)cc1-c1cc(Cc2ccc(OCc3ccccc3)cc2)no1` [Example 173, 3-(3-(4-Benzyloxy-benzyl)-isoxazol-5-yl)-5-fluoro-pyridin-2-ylamine], the MIC amounted to 1.56 µg/mL (≈ 4.16 µM) in test [1] and 0.78 µg/mL (≈ 2.08 µM) in test [2].
For the molecule `Nc1ccc(-c2cc(Cc3cccc(Oc4ccccc4)c3)no2)c(N)n1` [Example 123, 3-(3-(3-Phenoxy-benzyl)-isoxazol-5-yl)-pyridin-2,6-diamine], the MIC in test [1] turned out to be 0.2 µg/mL (≈ 0.558 µM); in test [2], 0.39 µg/mL (≈ 1.09 µM).
As for `Nc1ccc(-c2cc(Cc3ccc(Oc4ccc(F)cc4)nc3)no2)cn1` [Example 186, 5-(3-(6-(4-Fluoro-phenoxy)-pyridin-3-ylmethyl)-isoxazol-5-yl)-pyridin-2-ylamine], the MIC came to 3.13 µg/mL (≈ 8.64 µM) in test [1] and 0.78 µg/mL (≈ 2.15 µM) in test [2].
As to `Nc1ncccc1-n1cc(Cc2ccc(OCc3ccccc3)cc2)cn1` [Example 39, 3-(4-(4-Benzyloxy-benzyl)-pyrazol-1-yl)-pyridin-2-ylamine], the MIC in test [1] and in test [2] was 3.13 µg/mL (≈ 8.78 µM) throughout.
For the molecule `Nc1ncccc1-c1cc(Cc2ccc(OCC3CC3)cc2)no1` [Example 8, 3-(3-(4-Cyclopropylmethoxy-benzyl)-isoxazol-5-yl)-pyridin-2-ylamine], the figures for the MIC in test [1] and in test [2] were 1.56 µg/mL (≈ 4.85 µM) and 0.78 µg/mL (≈ 2.43 µM), respectively.
